In patent US9795600B2, “Method for treating abnormal β-amyloid mediated diseases” (NATIONAL TAIWAN NORMAL UNIVERSITY, priority 2014, dated 2017):

Assays:
[1] = target: T1, Trx-His-Aβ protein (Homo sapiens, UniProt P05067); test: Trx-His-Aβ biochemical assay (thioflavin T staining); settings: Trx-His-Aβ 10 μM, 37° C., 48 hr, Trx-His-Aβ with 2 days' incubation = 100%
T1 construct: the inventors overexpressed Trx-His tagged Aβ construct in E. coli; made in house; host or cells: E. coli
Procedure: Aggregation of β-amyloid (Aβ) was considered as target for intervention. For the biochemical assay, the inventors overexpressed Trx-His tagged Aβ construct in E. coli. After metal-affinity chromatography purification, the misfolded Trx-His-Aβ proteins can be identified by thioflavin T staining assay. The fluorescent intensity is increased after thioflavin T binds misfolded Trx-His-Aβ protein, and thus the misfolding level of Trx-His-Aβ protein can be measured. […] Then thioflavin T (10 μM) was added for 5 min and fluorescence analyzed on a microplate reader (excitation: 420 nm, emission: 485 nm). To normalize, the relative thioflavin T fluorescence of Trx-His-Aβ protein with 2 days' incubation at 37° C. is set as 100%. *, P<0.05 (n=3).

[2] = test system: Tet-On Aβ-GFP HEK-293 cells; test: Tet-On Aβ-GFP HEK-293 cell assay (GFP fluorescence, HCA); type: cell-based, human; settings: 8 hr pretreatment, Dox 64 hr, untreated cells = 100%
Description: For cell assay, we used a HEK-293 cell clone (human embryonic kidney cells) with Tet-On Aβ-GFP expression as a screening platform. GFP fluorescence was used to reflect Aβ aggregation status as Aβ aggregated rapidly to cause the fused GFP misfolded. Inhibition of Aβ aggregation may improve GFP misfolding, leading to increasing fluorescence on Aβ-GFP expressing cells. Tet-On Aβ-GFP HEK-293 cells were pretreated with different concentrations of compounds 1, 2, 6, 7 and curcumin for 8 hr before inducing Aβ-GFP expression. Then doxycycline (Dox) (10 μM) was added to the medium for 64 hr to induce Aβ-GFP expression, and GFP fluorescence was assessed by a high-content analysis (HCA) system (ImageXpressMICRO, available from Molecular Devices). To normalize, the relative GFP fluorescence of untreated cells (untreated with compounds 1, 2, 6 and 7, and curcumin) is set as 100%. *, P<0.05 as compared to the untreated cells; #, P<0.05 as compared to the same concentration curcumin-treated cells (n=3).

[3] = test system: HSPB1; test: HSPB1 expression in Aβ-GFP SH-SY5Y cells (Western blot); type: cell-based, human; settings: 5 μM; uninduced cells = 100%, induced untreated cells 90%
Description: The result is shown in FIG. 6, wherein the relative HSPB1 level of uninduced cells is set as 100%. *, P<0.05 between induced vs uninduced cells or compound-treated vs. untreated cells (n=3).

[4] = test system: mouse hippocampal primary culture; test: Mouse hippocampal primary culture under oligomeric Aβ toxicity; type: cell-based; settings: 1, 10 or 30 μM, oligomeric Aβ 1 μM, vs. Aβ alone; for total cells (DAPI staining) against oligomeric Aβ toxicity: FIG. 7(A); for mature neurons (NeuN staining) against oligomeric Aβ toxicity: FIG. 7(B); for synaptophysin level against oligomeric Aβ toxicity: FIG. 7(F); for neurite outgrowth (process, branch, length; MAP2 staining) against oligomeric Aβ toxicity: FIGS. 7(C)-(E)
Procedure: Postnatal day 0-1 mouse hippocampus was isolated for primary culture, and used to confirm the neuroprotective potential of the compounds of the present invention. Oligomeric Aβ (1 μM) was applied to the primary culture after the indolylquinoline compound (compounds 1, 2, 6 and 7) administration (1, 10, or 30 μM) at day 9. Cells were harvested 1 hr later for immunocytochemical analysis and quantitated the total cell number (as shown in FIG. 7(A), by DAPI staining), mature neuron number (as shown in FIG. 7(B), by NeuN antibody staining), neurite process (as shown in FIG. 7(C), by MAP2 antibody staining), neurite branch (as shown in FIG. 7(D), by MAP2 antibody staining), neurite length (as shown in FIG. 7(E), by MAP2 antibody staining), and synaptophysin expression level (as shown in FIG. 7(F), by synaptophysin antibody staining) In FIG. 7(A) to (F), the relative amount of cells treated with vesicle (hexafluoroisopropanol) is set as 100%. ###, P<0.001 between cells treated with Aβ and vehicle (n=3). *, P<0.05; **, P<0.01; ***, P<0.001 between cells treated with Aβ combined the compound of the present invention and Aβ alone (n=3).

[5] = test system: Tet-On Aβ-GFP HEK-293 cells; test: ROS assay in Tet-On Aβ-GFP HEK-293 cells; type: cell-based, human; settings: 5 μM; uninduced cells = 100%, induced untreated cells 128%
Procedure: Given that Aβ deposition causes cell death via a number of potential mechanisms including oxidative stress, the inventor also performed ROS assay with curcumin or synthetic indolylquinoline compounds 1, 2, 6 and 7 treatment (5 μM).

[6] = test system: Tet-On Aβ-GFP SH-SY5Y cells; test: Neurite outgrowth in Tet-On Aβ-GFP SH-SY5Y cells (TUBB3 immunostaining, HCA); type: cell-based, human; settings: 5 μM; Dox 6 days; uninduced cells = 100%, induced untreated cells 87%
Procedure: Tet-On Aβ human neuroblastoma SH-SY5Y cells were used to examine the neuroprotective potential of the compounds of the present invention. Tet-On Aβ-GFP SH-SY5Y cells were plated into 24-well plates with 10 μM retinoic acid (RA), grown for 24 hr and treated with tested indolylquinoline compounds 1, 2, 6 and 7 (5 μM) for 8 hr. Then doxycycline (10 μM) was added to the medium to for 6 days. Neurite outgrowth was assessed after TUBB3 immunostaining, and examined with the HCA system. The result is shown in FIG. 5, wherein the relative neurite outgrowth of uninduced cells (untreated with Dox) is set as 100%. *, P<0.05 between induced vs. uninduced cells or compound-treated vs. untreated cells (n=3).

[7] = 1.2˜5.0 μM, above 80% of viable cells

T1 sequence (P05067 672-713 limits assumed): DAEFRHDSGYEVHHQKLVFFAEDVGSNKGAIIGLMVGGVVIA

SMILES	relative thioflavin T fluorescence (misfolded Trx-His-Aβ aggregation) ([1]; 10˜20 μM compound)	relative GFP fluorescence (Aβ-GFP) ([2]; 1.2˜2.5 μM, above 80% of viable cells)	relative HSPB1 level [3]	total cells (DAPI staining) against oligomeric Aβ toxicity [4]	mature neurons (NeuN staining) against oligomeric Aβ toxicity [4]	synaptophysin level against oligomeric Aβ toxicity [4]	neurite outgrowth (process, branch, length; MAP2 staining) against oligomeric Aβ toxicity [4]	relative thioflavin T fluorescence (misfolded Trx-His-Aβ aggregation) ([1]; 20 μM compound)	relative GFP fluorescence (Aβ-GFP) ([2]; 1.2 μM, above 80% of viable cells)	relative thioflavin T fluorescence (misfolded Trx-His-Aβ aggregation) ([1]; 5˜20 μM compound)	relative GFP fluorescence (Aβ-GFP) [2, 7]	relative GFP fluorescence (Aβ-GFP) ([2]; 2.5˜5.0 μM)	relative ROS level [5]	relative neurite outgrowth [6]
CC(=O)C(=Cc1ccccc1[N+](=O)[O-])Cc1c(C)[nH]c2ccccc12 [compound 2]	74˜70%	107˜120%	112%	significantly improved	significantly improved	significantly improved	significantly improved	–	–	–	–	–	–	–
Cc1nc2ccccc2cc1Cc1c[nH]c2ccccc12 [compound 7]	–	–	117%	significantly improved	significantly improved	significantly improved	significantly improved	84%	105%	–	–	–	–	–
CCc1cccc2c(CC(=Cc3ccccc3[N+](=O)[O-])C(C)=O)c[nH]c12 [compound 6]	–	–	116%	significantly improved	significantly improved	significantly improved	significantly improved	–	–	90˜71%	107˜130%	–	–	–
COc1cc(/C=C/C(=O)CC(=O)/C=C/c2ccc(O)c(OC)c2)ccc1O [curcumin, reference compound]	–	–	123%	–	–	–	–	–	–	76˜54%	–	111˜122%	86%	105%
CC(=O)C(=Cc1ccccc1[N+](=O)[O-])Cc1c[nH]c2ccccc12 [compound 1]	–	–	126%	significantly improved	significantly improved	significantly improved	significantly improved	79%	–	–	112˜129%	–	–	–
